According to US9980979B2, “Compounds and methods for enhancing erythropoiesis” (NATIONAL YANG-MING UNIVERSITY, priority 2008, dated 2018):

Experiments:
bone marrow cells = experiment: DAF-based hemoglobin colorimetry assay on cultured bone marrow cells from phenylhydrazine-induced anemic mice; format: cell-based, C57BL/6JNarl mice; conditions: about 0.1 to about 20 μg/ml, 4 days, with 50 mU/ml EPO; **P<0.01 versus control (0 μg/ml); FIG. 1
Experimental: C57BL/6JNarl mice, 8-10 weeks of age, were purchased from the National Laboratory Animal Center (NLAC, Taiwan). Acute hemolytic anemia was induced by a single intraperitoneal (i.p.) injection of phenylhydrazine hydrochloride (Sigma-Aldrich) at a dose of 100 mg/kg in a phosphate buffered saline (PBS). Six days after the injection, bone marrow cells were isolated from mice and cultured according to the procedure described in Worthington et al., (1985) and Rosenthal et al. (1987) with minor modifications. […]
In the next day, different concentrations of compound A (0, 0.1, 0.5, 2.5, 12.5 and 20 μg/ml) were added to the cells, respectively, and incubated for 4 days. The relative levels of hemoglobin were determined using DAF-based hemoglobin colorimetry assay according to Kaiho (1985) and Worthington (1985) with minor modifications. […] The absorbance at 610 nm was measured by Victor 2 1420 Multilable Counter (Wallac, PerkinElmer). Results were expressed as relative index±S.E. (n=6). Statistical significance was evaluated by Student's t test (**P<0.01 versus control group (0 μg/ml)).

[1] = system: erythroid progenitor cells (bone marrow cells); experiment: burst-forming-units-erythroid (BFU-E) assay on bone marrow cells in culture; format: cell-based, C57BL/6JNarl mice; conditions: 0.5~12.5 μg/ml, 9 days, with 2 U/ml Epo and 10 ng/ml IL-3; versus 0 concentration; FIG. 2
Experimental: To investigate the effect of “Compound A” on erythroid progenitor cells, burst-forming-units-erythroid (BFU-E) assay was conducted according to the procedures described in Corazza et al. (2004) and Jin et al. (2003) with modifications. Briefly, 6-week-old C57BL/6JNarl mice were purchased from the National Laboratory Animal Center (NLAC, Taiwan). Bone marrow cells were isolated from the mice, and the cell suspension was adjusted to about 8.3×10^4 cells/ml in α-MEM containing 15% (v/v) FBS (Gibco), 1% (v/v) BSA (Sigma-Aldrich), 0.8% (w/v) methylcellulose (Sigma-Aldrich), 10 μM 2-mercaptoethanol (Sigma-Aldrich), 2 U/ml Epo (Recormon Epoetin, Roche), and 10 ng/ml IL-3 (Sigma-Aldrich). Cells were plated at approximately 7.5×10^4 cells/well in 24-well plates (Falcon). They were incubated with different concentrations of Compound A (0, 0.1, 0.5, 2.5 and 12.5 μg/ml), respectively, for 9 days in a humidified 37° C. incubator containing 5% CO2-95% air. The colonies were stained with 3-(4,5-dimethylthiazol-2-yl)-2,5-diphenyl-tetrazolium bromide (50 m/50 μl/well) (MTT; Sigma-Aldrich). Plates were photographed while colonies of more than 50 cells were counted. Results were expressed as mean±S.E. (n=3). Statistical significance was evaluated by Student's t test (*P<0.05 and **P<0.01 versus control group (i.e., 0 concentration)).

erythropoietin (Epo) = experiment: Epo expression in kidney slices (RT-PCR); format: cell-based, mouse; conditions: 0.6-100 μg/ml, 16 hr, versus 0 μg/ml, FIG. 3
Experimental: C57BL/6JNarl mice, 8-10 weeks of age, were purchased from the National Laboratory Animal Center (NLAC, Taiwan). The kidney slices of mice were prepared as previously described with modifications (Parrish et al., 1995, Obatomi et al., 1998 and De Kanter et al., 1999). Briefly, mice were sacrificed by cervical dislocation and the kidneys were excised and immediately kept in gassed (95% O2 and 5% CO2) ice-cold sterile Krebs-HEPES buffer (pH 7.4) containing 20 mM HEPES (USB), 128 mM sodium chloride (Sigma-Aldrich), 2.5 mM potassium chloride (Sigma-Aldrich), 2.7 mM calcium chloride (Sigma-Aldrich), 1 mM magnesium chloride (Sigma-Aldrich) and 16 mM D-glucose (Sigma-Aldrich). […]
Kidney slices were preincubated in a 24-well plate (Falcon) containing 1.0 ml/well of gassed (95% O2, 5% CO2) fresh media (DMEM/F12 (Gibco/Invitrogen) containing 15 mM HEPES (USB), 20 mM sodium bicarbonate (Sigma-Aldrich)) and 5% (v/v) FBS (Gibco) for 90˜120 min at 37° C. in a 95% O2: 5% CO2 atmosphere chamber. […] The reverse-transcribed cDNA samples were analyzed by polymerase chain reaction (PCR) using ABI GeneAmp™ system 2700 (Applied Biosystems) with primers targeting toward mouse β-actin (SEQ ID NOs: 1 and 2) and erythropoietin (Epo) (SEQ ID NOs: 3 and 4) (Table 1). Results were compared with control group (0 μg/ml) and expressed as relative index.

Which “hemoglobin formation (relative index)” value (bone marrow cells) does the source give for `OC[C@H]1O[C@@H](Oc2c(O)cc(O)cc2/C=C/c2ccc(O)cc2)[C@H](O)[C@@H](O)[C@@H]1O` [Compound A, 2,3,5,4′-tetrahydroxystilbene 2-O-β-D-glucopyranoside] here?
The value was “significantly enhanced hemoglobin formation”.

And the “number of BFU-E colonies of bone marrow cells” value [1]?
The value was “significantly increased the number of BFU-E colonies”.

And the “expression of Epo in kidney tissue (relative index)” value (erythropoietin (Epo))?
Its value is “increased the expression of Epo in kidney tissue”.
